row,melting point [°C],Compound
1,188 to 189,"COc1ccccc1Cn1cnc2n[nH]cc2c1=O [Compound 7, 5-(2-methoxybenzyl)-2,5-dihydropyrazolo[3,4-d]-pyrimidin-4-one]"
2,199 to 200,"Cc1cc(C)c(Cn2cnc3n[nH]cc3c2=O)c(C)c1 [Compound 9, 5-(2,4,6-trimethylbenzyl)-2,5-dihydropyrazolo[3,4-d]-pyrimidin-4-one]"
3,224 to 225,"O=c1c2c[nH]nc2ncn1Cc1ccccn1 [Compound 10, 5-(2-pyridinylmethyl)-2,5-dihydropyrazolo[3,4-d]-pyrimidin-4-one]"
4,200 to 201,"O=c1c2c[nH]nc2ncn1Cc1cccnc1 [Compound 11, 5-(3-pyridinylmethyl)-2,5-dihydropyrazolo[3,4-d]-pyrimidin-4-one]"
5,220 to 221,"O=c1c2c[nH]nc2ncn1Cc1ccncc1 [Compound 12, 5-(4-pyridinylmethyl)-2,5-dihydropyrazolo[3,4-d]-pyrimidin-4-one]"
6,114 to 117,"Cc1cccc(Cn2cnc3nn(C)cc3c2=O)c1 [Compound 15, 5-(3-methylbenzyl)-2-methyl-2,5-dihydropyrazolo[3,4-d]-pyrimidin-4-one]"
7,224 to 226,"Cc1ccc(Cn2cnc3nn(C)cc3c2=O)cc1 [Compound 16, 5-(4-methylbenzyl)-2-methyl-2,5-dihydropyrazolo[3,4-d]-pyrimidin-4-one]"
8,205 to 206,"Cn1cc2c(=O)n(Cc3ccccc3Cl)cnc2n1 [Compound 18, 5-(2-chlorobenzyl)-2-methyl-2,5-dihydropyrazolo[3,4-d]-pyrimidin-4-one]"
9,215 to 217,"Cn1cc2c(=O)n(Cc3ccccc3C(F)(F)F)cnc2n1 [Compound 20, 5-(2-trifluoromethylbenzyl)-2-methyl-2,5-dihydropyrazolo[3,4-d]pyrimidin-4-one]"
10,211 to 212,"Cn1cc2c(=O)n(Cc3ccc(C(F)(F)F)cc3)cnc2n1 [Compound 22, 5-(4-trifluoromethylbenzyl)-2-methyl-2,5-dihydropyrazolo[3,4-d]pyrimidin-4-one]"
11,216 to 218,"Cn1cc2c(=O)n(Cc3c(F)cccc3Cl)cnc2n1 [Compound 23, 5-(2-chloro-6-fluorobenzyl)-2-methyl-2,5-dihydropyrazolo[3,4-d]pyrimidin-4-one]"
12,189 to 191,"Cn1cc2c(=O)n(Cc3ccccc3-c3ccccc3)cnc2n1 [Compound 24, 5-(2-phenylbenzyl)-2-methyl-2,5-dihydropyrazolo[3,4-d]-pyrimidin-4-one]"
13,200 to 202,"Cn1cc2c(=O)n(Cc3c(Cl)cccc3Cl)cnc2n1 [Compound 25, 5-(2,6-dichlorobenzyl)-2-methyl-2,5-dihydro-pyrazolo[3,4-d]pyrimidin-4-one]"
14,220 to 222,"Cn1cc2c(=O)n(Cc3ccccc3[N+](=O)[O-])cnc2n1 [Compound 26, 5-(2-nitrobenzyl)-2-methyl-2,5-dihydropyrazolo[3,4-d]-pyrimidin-4-one]"
15,209 to 210,"Cn1cc2c(=O)n(Cc3ccc(Cl)cc3)cnc2n1 [Compound 27, 5-(4-chlorobenzyl)-2-methyl-2,5-dihydropyrazolo[3,4-d]-pyrimidin-4-one]"
16,218 to 219,"Cn1cc2c(=O)n(Cc3ccc(Cl)cc3Cl)cnc2n1 [Compound 28, 5-(2,4-dichlorobenzyl)-2-methyl-2,5-dihydropyrazolo[3,4-d]pyrimidin-4-one]"
17,187 to 190,"Cn1cc2c(=O)n(Cc3ccccc3I)cnc2n1 [Compound 29, 5-(2-iodobenzyl)-2-methyl-2,5-dihydropyrazolo[3,4-d]-pyrimidin-4-one]"
18,198 to 199,"Cn1cc2c(=O)n(Cc3ccccc3C#N)cnc2n1 [Compound 30, 5-(2-cyanobenzyl)-2-methyl-2,5-dihydropyrazolo[3,4-d]-pyrimidin-4-one]"
19,216 to 217,"Cn1cc2c(=O)n(Cc3ccc(F)cc3)cnc2n1 [Compound 31, 5-(4-fluorobenzyl)-2-methyl-2,5-dihydropyrazolo[3,4-d]-pyrimidin-4-one]"
20,182 to 184,"Cc1cc(C)c(Cn2cnc3nn(C)cc3c2=O)c(C)c1 [Compound 32, 5-(2,4,6-trimethylbenzyl)-2-methyl-2,5-dihydropyrazolo[3,4-d]pyrimidin-4-one]"
21,203 to 205,"Cn1cc2c(=O)n(Cc3ccccn3)cnc2n1 [Compound 33, 5-(2-pyridinylmethyl)-2-methyl-2,5-dihydropyrazolo[3,4-d]-pyrimidin-4-one]"
22,192 to 195,"Cn1cc2c(=O)n(Cc3ccncc3)cnc2n1 [Compound 34, 5-(4-pyridinylmethyl)-2-methyl-2,5-dihydropyrazolo[3,4-d]-pyrimidin-4-one]"
23,207 to 209,"CCn1cc2c(=O)n(Cc3c(F)cccc3Cl)cnc2n1 [Compound 35, 5-(2-chloro-6-fluorobenzyl)-2-ethyl-2,5-dihydropyrazolo[3,4-d]pyrimidin-4-one]"

row,melting point [°C],Compound
1,178 to 179,"CCn1cc2c(=O)n(Cc3ccc(C)cc3)cnc2n1 [Compound 36, 5-(4-methylbenzyl)-2-ethyl-2,5-dihydropyrazolo[3,4-d]-pyrimidin-4-one]"
2,190 to 191,"CCn1cc2c(=O)n(Cc3ccccn3)cnc2n1 [Compound 38, 5-(2-pyridinylmethyl)-2-ethyl-2,5-dihydropyrazolo[3,4-d]-pyrimidin-4-one]"
3,163 to 165,"CCCn1cc2c(=O)n(Cc3c(F)cccc3Cl)cnc2n1 [Compound 39, 5-(2-chloro-6-fluorobenzyl)-2-propyl-2,5-dihydropyrazolo[3,4-d]pyrimidin-4-one]"
4,157 to 158,"CCCn1cc2c(=O)n(Cc3ccc(C)cc3)cnc2n1 [Compound 40, 5-(4-methylbenzyl)-2-propyl-2,5-dihydropyrazolo[3,4-d]-pyrimidin-4-one]"
5,167 to 168,"CCCn1cc2c(=O)n(Cc3c(F)cccc3F)cnc2n1 [Compound 41, 5-(2,6-difluorobenzyl)-2-propyl-2,5-dihydropyrazolo[3,4-d]pyrimidin-4-one]"
6,179 to 181,"CCCn1cc2c(=O)n(Cc3ccccn3)cnc2n1 [Compound 42, 5-(2-pyridinylmethyl)-2-propyl-2,5-dihydropyrazolo[3,4-d]-pyrimidin-4-one]"
7,145 to 147,"Cc1ccc(Cn2cnc3nn(C(C)C)cc3c2=O)cc1 [Compound 44, 5-(4-methylbenzyl)-2-isopropyl-2,5-dihydropyrazolo[3,4-d]-pyrimidin-4-one]"
8,156 to 157,"CC(C)n1cc2c(=O)n(Cc3c(F)cccc3F)cnc2n1 [Compound 45, 5-(2,6-difluorobenzyl)-2-isopropyl-2,5-dihydropyrazolo[3,4-d]pyrimidin-4-one]"
9,163 to 164,"CC(C)n1cc2c(=O)n(Cc3ccccn3)cnc2n1 [Compound 46, 5-(2-pyridinylmethyl)-2-isopropyl-2,5-dihydropyrazolo[3,4-d]pyrimidin-4-one]"
10,156 to 157,"CCCCn1cc2c(=O)n(Cc3c(F)cccc3Cl)cnc2n1 [Compound 47, 5-(2-chloro-6-fluorobenzyl)-2-butyl-2,5-dihydropyrazolo[3,4-d]pyrimidin-4-one]"
11,146 to 147,"CCCCn1cc2c(=O)n(Cc3ccc(C)cc3)cnc2n1 [Compound 48, 5-(4-methylbenzyl)-2-butyl-2,5-dihydropyrazolo[3,4-d]-pyrimidin-4-one]"
12,151 to 152,"CCCCn1cc2c(=O)n(Cc3c(F)cccc3F)cnc2n1 [Compound 49, 5-(2,6-difluorobenzyl)-2-butyl-2,5-dihydropyrazolo[3,4-d]-pyrimidin-4-one]"
13,195 to 197,"O=c1c2cn(-c3ccccc3)nc2ncn1Cc1c(F)cccc1Cl [Compound 50, 5-(2-chloro-6-fluorobenzyl)-2-phenyl-2,5-dihydropyrazolo[3,4-d]pyrimidin-4-one]"
14,182 to 183,"Cc1ccc(Cn2cnc3nn(-c4ccccc4)cc3c2=O)cc1 [Compound 51, 5-(4-methylbenzyl)-2-phenyl-2,5-dihydropyrazolo[3,4-d]-pyrimidin-4-one]"
15,189 to 191,"O=c1c2cn(-c3ccccc3)nc2ncn1Cc1c(F)cccc1F [Compound 52, 5-(2,6-difluorobenzyl)-2-phenyl-2,5-dihydropyrazolo[3,4-d]pyrimidin-4-one]"
16,199 to 201,"O=c1c2cn(-c3ccccc3)nc2ncn1Cc1ccccn1 [Compound 53, 5-(2-pyridinylmethyl)-2-phenyl-2,5-dihydropyrazolo[3,4-d]-pyrimidin-4-one]"
17,176 to 177,"O=c1c2cn(Cc3ccccc3)nc2ncn1Cc1c(F)cccc1Cl [Compound 54, 5-(2-chloro-6-fluorobenzyl)-2-benzyl-2,5-dihydropyrazolo[3,4-d]pyrimidin-4-one]"
18,167 to 169,"Cc1ccc(Cn2cnc3nn(Cc4ccccc4)cc3c2=O)cc1 [Compound 55, 5-(4-methylbenzyl)-2-benzyl-2,5-dihydropyrazolo[3,4-d]-pyrimidin-4-one]"
19,173 to 174,"O=c1c2cn(Cc3ccccc3)nc2ncn1Cc1c(F)cccc1F [Compound 56, 5-(2,6-difluorobenzyl)-2-benzyl-2,5-dihydropyrazolo[3,4-d]pyrimidin-4-one]"
20,182 to 184,"O=c1c2cn(Cc3ccccc3)nc2ncn1Cc1ccccn1 [Compound 57, 5-(2-pyridinylmethyl)-2-benzyl-2,5-dihydropyrazolo[3,4-d]-pyrimidin-4-one]"
21,174 to 175,"O=c1c2cn(Cc3ccccn3)nc2ncn1Cc1c(F)cccc1F [Compound 59, 5-(2,6-difluorobenzyl)-2-pyridin-2-ylmethyl-2,5-dihydropyrazolo[3,4-d]pyrimidin-4-one]"
22,222 to 224,"Cc1nc2n[nH]cc2c(=O)n1Cc1ccccc1Cl [Compound 61, 5-(2-chlorobenzyl)-6-methyl-2,5-dihydropyrazolo[3,4-d]-pyrimidin-4-one]"
23,192 to 193,"Cc1nc2nn(C)cc2c(=O)n1Cc1ccccc1C(F)(F)F [Compound 63, 5-(2-trifluoromethylbenzyl)-2,6-dimethyl-2,5-dihydropyrazolo[3,4-d]pyrimidin-4-one]"

# — US20030186997A1, “2,5-Dihydro-pyrazolo[3,4-d]pyrimidin-4-ones with an anticonsulsive action and methods for producing the same” (priority 2000, published 2003)
